# According to paper PMC8037182, “Solvothermal Synthesis of Multiple Dihydropyrimidinones at a Time as Inhibitors of Eg5” (Molecules, 2021):
# pIC50: −log10 of the molar value.
# Test system: T24 cell line
# Experiment: Cytotoxicity MTS assay, T24 cell line
# Format: cell-based
# Details: for pIC50: MTS assay, 24 h exposure; for OD490 Mean / OD490 Well 1 / OD490 Well 2 / OD490 Well 3: T24 cell line
# Procedure: The positive compounds (IC50 < 100 μM) obtained from the primary Eg5 motor protein ATPase assay were tested for antiproliferative activity in vitro against Caco-2 cell line, Hela cell line, L929 cell line and T24 cell line by performing MTS assay. Cells were introduced into 96-well plates at a density of 1000 cells per well. After 24 h incubation, the cells were exposed with compounds at final concentrations ranging from 0.5 to 100 µM for 24 h. DMSO was used at a final concentration of 0.025% as blank control, monastrol was used as the positive control. Then 20 µL (CellTiter 96® AQueous One Solution Promega, Madison, WI, USA) reagent was added in each well. After 2 h at 37 °C in a 80% humidified, 5% CO2 atmosphere, the absorbance at 490 nm was recorded using a microplate reader (BIO-RAD iMark^TM). The results were obtained in three independent duplicate experiments. The primary data were shown in Supplementary Materials Tables S4–S7. The IC50 values for these compounds were calculated from a non-linear regression graph plotted between the percentage of cell viability and concentration with SPSS17.0 software.
smiles,measurement,setting,value
CCOC(=O)c1[nH]c(C2NC(=O)NC(C)=C2C(=O)Nc2ccccc2C)c(C(=O)OC)c1C (stereo not drawn) [D4],pIC50,,3.89
same,OD490 Mean,"0.5μM, first assay",1.9335
same,OD490 Well 1,"0.5μM, first assay",1.4364
same,OD490 Well 2,"0.5μM, first assay",2.2473
same,OD490 Well 3,"0.5μM, first assay",2.1169
same,OD490 Mean,"0.5μM, second assay",1.7407
same,OD490 Well 1,"0.5μM, second assay",1.6852
same,OD490 Well 2,"0.5μM, second assay",1.7785
same,OD490 Well 3,"0.5μM, second assay",1.7585
same,OD490 Mean,"0.5μM, third assay",1.7395
same,OD490 Well 1,"0.5μM, third assay",1.7423
same,OD490 Well 2,"0.5μM, third assay",1.7741
same,OD490 Well 3,"0.5μM, third assay",1.7022
same,OD490 Mean,"1μM, first assay",2.0004
same,OD490 Well 1,"1μM, first assay",1.9146
same,OD490 Well 2,"1μM, first assay",1.8237
same,OD490 Well 3,"1μM, first assay",2.2630
same,OD490 Mean,"1μM, second assay",1.6895
same,OD490 Well 1,"1μM, second assay",1.7235
same,OD490 Well 2,"1μM, second assay",1.6895
same,OD490 Well 3,"1μM, second assay",1.6555
same,OD490 Mean,"1μM, third assay",1.7159
same,OD490 Well 1,"1μM, third assay",1.7423
same,OD490 Well 2,"1μM, third assay",1.7020
same,OD490 Well 3,"1μM, third assay",1.7033
same,OD490 Mean,"10μM, first assay",1.7700
same,OD490 Well 1,"10μM, first assay",1.7289
same,OD490 Well 2,"10μM, first assay",1.7432
same,OD490 Well 3,"10μM, first assay",1.8379
same,OD490 Mean,"10μM, second assay",1.7224
same,OD490 Well 1,"10μM, second assay",1.6895
same,OD490 Well 2,"10μM, second assay",1.7125
same,OD490 Well 3,"10μM, second assay",1.7652
same,OD490 Mean,"10μM, third assay",1.7024
same,OD490 Well 1,"10μM, third assay",1.6647
same,OD490 Well 2,"10μM, third assay",1.7424
same,OD490 Well 3,"10μM, third assay",1.7000
same,OD490 Mean,"25μM, first assay",1.7511
same,OD490 Well 1,"25μM, first assay",1.6328
same,OD490 Well 2,"25μM, first assay",1.8078
same,OD490 Well 3,"25μM, first assay",1.8128
same,OD490 Mean,"25μM, second assay",1.5821
same,OD490 Well 1,"25μM, second assay",1.5660
same,OD490 Well 2,"25μM, second assay",1.5848
same,OD490 Well 3,"25μM, second assay",1.5954
same,OD490 Mean,"25μM, third assay",1.5535
same,OD490 Well 1,"25μM, third assay",1.5385
same,OD490 Well 2,"25μM, third assay",1.5232
same,OD490 Well 3,"25μM, third assay",1.5987
same,OD490 Mean,"50μM, first assay",1.6313
same,OD490 Well 1,"50μM, first assay",1.6866
same,OD490 Well 2,"50μM, first assay",1.7561
same,OD490 Well 3,"50μM, first assay",1.4513
same,OD490 Mean,"50μM, second assay",1.4096
same,OD490 Well 1,"50μM, second assay",1.4425
same,OD490 Well 2,"50μM, second assay",1.4212
same,OD490 Well 3,"50μM, second assay",1.3652
same,OD490 Mean,"50μM, third assay",1.4169
same,OD490 Well 1,"50μM, third assay",1.4284
same,OD490 Well 2,"50μM, third assay",1.4022
same,OD490 Well 3,"50μM, third assay",1.4202
same,OD490 Mean,"100μM, first assay",1.4469
same,OD490 Well 1,"100μM, first assay",1.4538
same,OD490 Well 2,"100μM, first assay",1.4557
same,OD490 Well 3,"100μM, first assay",1.4313
same,OD490 Mean,"100μM, second assay",1.2781
same,OD490 Well 1,"100μM, second assay",1.3325
same,OD490 Well 2,"100μM, second assay",1.2654
same,OD490 Well 3,"100μM, second assay",1.2365
same,OD490 Mean,"100μM, third assay",1.2819
same,OD490 Well 1,"100μM, third assay",1.2539
same,OD490 Well 2,"100μM, third assay",1.3332
same,OD490 Well 3,"100μM, third assay",1.2585
CCOC(=O)c1[nH]c(C2NC(=S)NC(C)=C2C(=O)OC)c(C(=O)OCC)c1C (stereo not drawn) [D12],pIC50,,< 3.82
same,OD490 Mean,"0.5μM, first assay",1.1142
same,OD490 Well 1,"0.5μM, first assay",1.0855
same,OD490 Well 2,"0.5μM, first assay",0.8354
same,OD490 Well 3,"0.5μM, first assay",1.4216
same,OD490 Mean,"1μM, first assay",1.1490
same,OD490 Well 1,"1μM, first assay",1.1324
same,OD490 Well 2,"1μM, first assay",1.1847
same,OD490 Well 3,"1μM, first assay",1.1298
same,OD490 Mean,"10μM, first assay",1.2900
same,OD490 Well 1,"10μM, first assay",1.3295
same,OD490 Well 2,"10μM, first assay",1.2196
same,OD490 Well 3,"10μM, first assay",1.3210
same,OD490 Mean,"25μM, first assay",1.3787
same,OD490 Well 1,"25μM, first assay",1.3758
same,OD490 Well 2,"25μM, first assay",1.4030
same,OD490 Well 3,"25μM, first assay",1.3572
same,OD490 Mean,"50μM, first assay",1.3058
same,OD490 Well 1,"50μM, first assay",1.3832
same,OD490 Well 2,"50μM, first assay",1.3204
same,OD490 Well 3,"50μM, first assay",1.2137
same,OD490 Mean,"100μM, first assay",1.2394
same,OD490 Well 1,"100μM, first assay",1.3664
same,OD490 Well 2,"100μM, first assay",1.1849
same,OD490 Well 3,"100μM, first assay",1.1670
CCOC(=O)c1c(C2NC(=O)NC(C)=C2C(=O)Nc2ccccc2OC)[nH]c(C(=O)OC)c1C (stereo not drawn) [D1],pIC50,,3.88
same,OD490 Mean,"0.5μM, first assay",1.7953
same,OD490 Well 1,"0.5μM, first assay",1.9580
same,OD490 Well 2,"0.5μM, first assay",1.8859
same,OD490 Well 3,"0.5μM, first assay",1.5421
same,OD490 Mean,"0.5μM, second assay",1.6618
same,OD490 Well 1,"0.5μM, second assay",1.6321
same,OD490 Well 2,"0.5μM, second assay",1.6547
same,OD490 Well 3,"0.5μM, second assay",1.6987
same,OD490 Mean,"0.5μM, third assay",1.6883
same,OD490 Well 1,"0.5μM, third assay",1.6325
same,OD490 Well 2,"0.5μM, third assay",1.6625
same,OD490 Well 3,"0.5μM, third assay",1.7698
same,OD490 Mean,"1μM, first assay",1.8122
same,OD490 Well 1,"1μM, first assay",1.9288
same,OD490 Well 2,"1μM, first assay",1.8729
same,OD490 Well 3,"1μM, first assay",1.6348
same,OD490 Mean,"1μM, second assay",1.5761
same,OD490 Well 1,"1μM, second assay",1.5621
same,OD490 Well 2,"1μM, second assay",1.7412
same,OD490 Well 3,"1μM, second assay",1.4251
same,OD490 Mean,"1μM, third assay",1.7342
same,OD490 Well 1,"1μM, third assay",1.7236
same,OD490 Well 2,"1μM, third assay",1.7425
same,OD490 Well 3,"1μM, third assay",1.7365
same,OD490 Mean,"10μM, first assay",1.8792
same,OD490 Well 1,"10μM, first assay",2.1723
same,OD490 Well 2,"10μM, first assay",1.7790
same,OD490 Well 3,"10μM, first assay",1.6864
same,OD490 Mean,"10μM, second assay",1.7434
same,OD490 Well 1,"10μM, second assay",1.9658
same,OD490 Well 2,"10μM, second assay",1.6625
same,OD490 Well 3,"10μM, second assay",1.6020
same,OD490 Mean,"10μM, third assay",1.7548
same,OD490 Well 1,"10μM, third assay",1.7768
same,OD490 Well 2,"10μM, third assay",1.8524
same,OD490 Well 3,"10μM, third assay",1.6352
same,OD490 Mean,"25μM, first assay",1.7549
same,OD490 Well 1,"25μM, first assay",1.8700
same,OD490 Well 2,"25μM, first assay",1.7393
same,OD490 Well 3,"25μM, first assay",1.6554
same,OD490 Mean,"25μM, second assay",1.7221
same,OD490 Well 1,"25μM, second assay",1.6685
same,OD490 Well 2,"25μM, second assay",1.7236
same,OD490 Well 3,"25μM, second assay",1.7741
same,OD490 Mean,"25μM, third assay",1.8268
same,OD490 Well 1,"25μM, third assay",1.7747
same,OD490 Well 2,"25μM, third assay",1.7535
same,OD490 Well 3,"25μM, third assay",1.9522
same,OD490 Mean,"50μM, first assay",1.5187
same,OD490 Well 1,"50μM, first assay",1.4408
same,OD490 Well 2,"50μM, first assay",1.5156
same,OD490 Well 3,"50μM, first assay",1.5997
same,OD490 Mean,"50μM, second assay",1.5158
same,OD490 Well 1,"50μM, second assay",1.5365
same,OD490 Well 2,"50μM, second assay",1.5214
same,OD490 Well 3,"50μM, second assay",1.4896
same,OD490 Mean,"50μM, third assay",1.4458
same,OD490 Well 1,"50μM, third assay",1.4214
same,OD490 Well 2,"50μM, third assay",1.4823
same,OD490 Well 3,"50μM, third assay",1.4336
same,OD490 Mean,"100μM, first assay",1.4345
same,OD490 Well 1,"100μM, first assay",1.4729
same,OD490 Well 2,"100μM, first assay",1.3331
same,OD490 Well 3,"100μM, first assay",1.4975
same,OD490 Mean,"100μM, second assay",1.3859
same,OD490 Well 1,"100μM, second assay",1.3654
same,OD490 Well 2,"100μM, second assay",1.5687
same,OD490 Well 3,"100μM, second assay",1.2235
same,OD490 Mean,"100μM, third assay",1.3345
same,OD490 Well 1,"100μM, third assay",1.3553
same,OD490 Well 2,"100μM, third assay",1.4058
same,OD490 Well 3,"100μM, third assay",1.2423
